# Test results as given in PubChem BioAssay (NCI).
#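 Exposure lasted 48 hours, with cells grown in 96-well plates and compounds tested at five concentrations. Definition used: TGI = concentration required for complete inhibition of growth.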
# Key:
# Experiment in all cases: growth of human tumour cells (NCI), 48 h
# 786-0 renal = test system: 786-0 renal
# A498 renal = test system: A498 renal
# A549 NSCLC = test system: A549 NSCLC
# ACHN renal = test system: ACHN renal
# CAKI-1 renal = test system: CAKI-1 renal
# CCRF-CEM leukemia = test system: CCRF-CEM leukemia
# COLO 205 colon = test system: COLO 205 colon
# DU-145 prostate = test system: DU-145 prostate
# EKVX NSCLC = test system: EKVX NSCLC
# HCC-2998 colon = test system: HCC-2998 colon
# HCT-116 colon = test system: HCT-116 colon
# HCT-15 colon = test system: HCT-15 colon
# HL-60(TB) leukemia = test system: HL-60(TB) leukemia
# HOP-62 NSCLC = test system: HOP-62 NSCLC
# HOP-92 NSCLC = test system: HOP-92 NSCLC
# HS 578T breast = test system: HS 578T breast
# HT29 colon = test system: HT29 colon
# IGROV1 ovarian = test system: IGROV1 ovarian
# K-562 leukemia = test system: K-562 leukemia
# KM12 colon = test system: KM12 colon
# LOX IMVI melanoma = test system: LOX IMVI melanoma
# M14 melanoma = test system: M14 melanoma
# MALME-3M melanoma = test system: MALME-3M melanoma
# MCF7 breast = test system: MCF7 breast
# MDA-MB-231 breast = test system: MDA-MB-231 breast
# MDA-MB-435 = test system: MDA-MB-435
# MDA-N = test system: MDA-N
# MOLT-4 leukemia = test system: MOLT-4 leukemia
# NCI-H226 lung = test system: NCI-H226 lung
# NCI-H23 lung = test system: NCI-H23 lung
# NCI-H460 lung = test system: NCI-H460 lung
# NCI-H522 lung = test system: NCI-H522 lung
# NCI/ADR-RES ovarian = test system: NCI/ADR-RES ovarian
# OVCAR-3 ovarian = test system: OVCAR-3 ovarian
# OVCAR-4 ovarian = test system: OVCAR-4 ovarian
# OVCAR-5 ovarian = test system: OVCAR-5 ovarian
# OVCAR-8 ovarian = test system: OVCAR-8 ovarian
# PC-3 prostate = test system: PC-3 prostate
# RXF 393 renal = test system: RXF 393 renal
# SF-268 CNS = test system: SF-268 CNS
# SF-295 CNS = test system: SF-295 CNS
# SF-539 CNS = test system: SF-539 CNS
# SK-MEL-2 melanoma = test system: SK-MEL-2 melanoma
# SK-MEL-28 melanoma = test system: SK-MEL-28 melanoma
# SK-MEL-5 melanoma = test system: SK-MEL-5 melanoma
# SK-OV-3 ovarian = test system: SK-OV-3 ovarian
# SN12C renal = test system: SN12C renal
# SNB-19 CNS = test system: SNB-19 CNS
# SNB-75 CNS = test system: SNB-75 CNS
# SR leukemia = test system: SR leukemia
# SW-620 colon = test system: SW-620 colon
# T-47D breast = test system: T-47D breast
# TK-10 renal = test system: TK-10 renal
# U251 CNS = test system: U251 CNS
# UACC-257 melanoma = test system: UACC-257 melanoma
# UACC-62 melanoma = test system: UACC-62 melanoma
# UO-31 renal = test system: UO-31 renal
# BT-549 breast = test system: BT-549 breast
# RPMI-8226 leukemia = test system: RPMI-8226 leukemia
smiles,measurement,setting,value
Cc1ccc(S(=O)(=O)N/N=C2\CC3C4CCC3C2C4)cc1 (stereo not drawn),TGI,786-0 renal,> 100 µM
same,TGI,A498 renal,> 100 µM
same,TGI,A549 NSCLC,> 100 µM
same,TGI,ACHN renal,> 100 µM
same,TGI,CAKI-1 renal,> 100 µM
same,TGI,CCRF-CEM leukemia,> 100 µM
same,TGI,COLO 205 colon,> 100 µM
same,TGI,DU-145 prostate,> 100 µM
same,TGI,EKVX NSCLC,> 100 µM
same,TGI,HCC-2998 colon,> 100 µM
same,TGI,HCT-116 colon,> 100 µM
same,TGI,HCT-15 colon,> 100 µM
same,TGI,HL-60(TB) leukemia,> 100 µM
same,TGI,HOP-62 NSCLC,> 100 µM
same,TGI,HOP-92 NSCLC,> 100 µM
same,TGI,HS 578T breast,> 100 µM
same,TGI,HT29 colon,> 100 µM
same,TGI,IGROV1 ovarian,> 100 µM
same,TGI,K-562 leukemia,> 100 µM
same,TGI,KM12 colon,> 100 µM
same,TGI,LOX IMVI melanoma,> 100 µM
same,TGI,M14 melanoma,> 100 µM
same,TGI,MALME-3M melanoma,> 100 µM
same,TGI,MCF7 breast,> 100 µM
same,TGI,MDA-MB-231 breast,> 100 µM
same,TGI,MDA-MB-435,> 100 µM
same,TGI,MDA-N,> 100 µM
same,TGI,MOLT-4 leukemia,> 100 µM
same,TGI,NCI-H226 lung,> 100 µM
same,TGI,NCI-H23 lung,> 100 µM
same,TGI,NCI-H460 lung,> 100 µM
same,TGI,NCI-H522 lung,> 100 µM
same,TGI,NCI/ADR-RES ovarian,> 100 µM
same,TGI,OVCAR-3 ovarian,> 100 µM
same,TGI,OVCAR-4 ovarian,> 100 µM
same,TGI,OVCAR-5 ovarian,> 100 µM
same,TGI,OVCAR-8 ovarian,> 100 µM
same,TGI,PC-3 prostate,> 100 µM
same,TGI,RXF 393 renal,> 100 µM
same,TGI,SF-268 CNS,> 100 µM
same,TGI,SF-295 CNS,> 100 µM
same,TGI,SF-539 CNS,> 100 µM
same,TGI,SK-MEL-2 melanoma,> 100 µM
same,TGI,SK-MEL-28 melanoma,> 100 µM
same,TGI,SK-MEL-5 melanoma,> 100 µM
same,TGI,SK-OV-3 ovarian,> 100 µM
same,TGI,SN12C renal,> 100 µM
same,TGI,SNB-19 CNS,> 100 µM
same,TGI,SNB-75 CNS,> 100 µM
same,TGI,SR leukemia,> 100 µM
same,TGI,SW-620 colon,> 100 µM
same,TGI,T-47D breast,> 100 µM
same,TGI,TK-10 renal,> 100 µM
same,TGI,U251 CNS,> 100 µM
same,TGI,UACC-257 melanoma,> 100 µM
same,TGI,UACC-62 melanoma,> 100 µM
same,TGI,UO-31 renal,> 100 µM
NC(N)=N/N=C/c1c(-c2ccc(Cl)cc2)nc2n1CCS2,TGI,786-0 renal,17.1 µM
same,TGI,A498 renal,26.4 µM
same,TGI,A549 NSCLC,22.2 µM
same,TGI,ACHN renal,27 µM
same,TGI,BT-549 breast,28 µM
same,TGI,CAKI-1 renal,28 µM
same,TGI,CCRF-CEM leukemia,16.9 µM
same,TGI,COLO 205 colon,14.3 µM
same,TGI,DU-145 prostate,25.5 µM
same,TGI,EKVX NSCLC,30.4 µM
same,TGI,HCC-2998 colon,8.39 µM
same,TGI,HCT-116 colon,16.4 µM
same,TGI,HCT-15 colon,28.8 µM
same,TGI,HL-60(TB) leukemia,> 100 µM
same,TGI,HOP-62 NSCLC,27.4 µM
same,TGI,HOP-92 NSCLC,22.6 µM
same,TGI,HS 578T breast,58.8 µM
same,TGI,HT29 colon,21.1 µM
same,TGI,IGROV1 ovarian,27.5 µM
same,TGI,K-562 leukemia,20 µM
same,TGI,KM12 colon,24.2 µM
same,TGI,LOX IMVI melanoma,18 µM
same,TGI,M14 melanoma,11.1 µM
same,TGI,MALME-3M melanoma,30.9 µM
same,TGI,MCF7 breast,27.9 µM
same,TGI,MDA-MB-435,25.6 µM
same,TGI,MDA-N,23.3 µM
same,TGI,MOLT-4 leukemia,17.3 µM
same,TGI,NCI-H226 lung,41 µM
same,TGI,NCI-H460 lung,26.9 µM
same,TGI,NCI-H522 lung,28.7 µM
same,TGI,NCI/ADR-RES ovarian,32.6 µM
same,TGI,OVCAR-3 ovarian,22.1 µM
same,TGI,OVCAR-4 ovarian,28.6 µM
same,TGI,OVCAR-5 ovarian,28.3 µM
same,TGI,OVCAR-8 ovarian,29.5 µM
same,TGI,PC-3 prostate,18.2 µM
same,TGI,RPMI-8226 leukemia,26.9 µM
same,TGI,RXF 393 renal,24.5 µM
same,TGI,SF-268 CNS,25.3 µM
same,TGI,SF-295 CNS,11.3 µM
same,TGI,SF-539 CNS,25 µM
same,TGI,SK-MEL-2 melanoma,24.2 µM
same,TGI,SK-MEL-28 melanoma,26.8 µM
same,TGI,SK-MEL-5 melanoma,10.3 µM
same,TGI,SK-OV-3 ovarian,27 µM
same,TGI,SN12C renal,29.5 µM
same,TGI,SNB-19 CNS,32.6 µM
same,TGI,SNB-75 CNS,26.2 µM
same,TGI,SW-620 colon,21 µM
same,TGI,T-47D breast,34.8 µM
same,TGI,TK-10 renal,29.4 µM
same,TGI,U251 CNS,28.5 µM
same,TGI,UACC-257 melanoma,28 µM
same,TGI,UACC-62 melanoma,24.6 µM
same,TGI,UO-31 renal,25.5 µM
